From patent US20230148144A1, “Cell” (AUTOLUS LIMITED, priority 2020, published 2023)

System: CAR-T cells
Assay: Effect of Tacrolimus on proliferation of CAR-expressing cells in co-culture
Format: cell-based
Conditions: 20 ng/ml Tacrolimus
Protocol: Cells were co-cultures for 96 hours at a 1:4 E:T ratio in the presence or absence of 20 ng/ml of Tacrolimus. Transduced effector cells were identified based on their expression of RQR8 and their proliferation analysed using cell-trace violet (CTV) dilution. […] In a similar study, cells transduced to express either TRBC2 CAR alone or TRBC2 CAR in combination with a calcineurin mutant (CnB30) were co-cultured for 4 days with TRBC2+ positive targets in the presence or absence of 20 ng/ml of Tacrolimus. […] This was true for cells expressing TRBC2 CAR alone or co-expressing TRBC2 CAR in combination with the calcineurin mutant.

**Q.** What does the source list for `C=CC[C@@H]1/C=C(\C)C[C@H](C)C[C@H](OC)[C@H]2O[C@@](O)(C(=O)C(=O)N3CCCC[C@H]3C(=O)O[C@H](/C(C)=C/[C@@H]3CC[C@@H](O)[C@H](OC)C3)[C@H](C)[C@@H](O)CC1=O)[C@H](C)C[C@@H]2OC` [Tacrolimus]?
**A.** proliferation of cells expressing TRBC2 CAR alone (4 days co-culture with TRBC2+ targets, FIG. 22): inhibits proliferation; proliferation of CAR-T cells (96 h co-culture, FIG. 16B vs FIG. 17B): inhibited
